According to US5866573A, “Pyrazinone thrombin inhibitors” (Merck & Co., Inc., priority 1997, dated 1999):

Key:
human α-thrombin = human α-thrombin (Homo sapiens, UniProt P00734); experiment: In vitro assay for determining proteinase inhibition: human α-thrombin; type: biochemical; conditions: inhibitory activity against human thrombin, class symbols of Tables 1-3; 25° C., pH 7.4
Procedure: Assays of human α-thrombin and human trypsin were performed by the methods substantially as described in Thrombosis Research, Issue No. 70, page 173 (1993) by S. D. Lewis et al.
The assays were carried out at 25° C. in 0.05M TRIS buffer pH 7.4, 0.15M NaCl, 0.1% PEG. Trypsin assays also contained 1 mM CaCl2. In assays wherein rates of hydrolysis of a p-nitroanilide (pna) substrate were determined, a Thermomax 96-well plate reader was used was used to measure (at 405 nm) the time dependent appearance of p-nitroaniline. sar-PR-pna was used to assay human α-thrombin (Km =125 μM) and bovine trypsin (Km =125 μM). p-Nitroanilide substrate concentration was determined from measurements of absorbance at 342 nm using an extinction coefficient of 8270 cm^-1 M^-1.
In certain studies with potent inhibitors (Ki <10 nM) where the degree of inhibition of thrombin was high, a more sensitive activity assay was employed. In this assay the rate of thrombin catalyzed hydrolysis of the fluorogenic substrate Z-GPR-afc (Km =27 μM) was determined from the increase in fluorescence at 500 nm (excitation at 400 nm) associated with production of 7-amino-4-trifluoromethyl coumarin. Concentrations of stock solutions of Z-GPR-afc were determined from measurements of absorbance at 380 nm of the 7-amino-4-trifluoromethyl coumarin produced upon complete hydrolysis of an aliquot of the stock solution by thrombin.
Activity assays were performed by diluting a stock solution of substrate at least tenfold to a final concentration ≤0.1 Km into a solution containing enzyme or enzyme equilibrated with inhibitor. Times required to achieve equilibration between enzyme and inhibitor were determined in control experiments. Initial velocities of product formation in the absence (Vo) or presence of inhibitor (Vi) were measured. […]

thrombotic occlusion = experiment: In vivo rat ferric chloride assay to measure thrombotic occlusions; design: species or system Male Sprague-Dawley rats; conditions: 10 μg/kg/min i.v. infusion from 60 min before 35% FeCl3 and 90 min after, 6 rats
Procedure: Studies of 3 (2-Phenylethylarnino)-6-methyl-1-(2-amino-6-following rat ferric chloride assay substantially as described in Thrombosis Research, No. 60, page 269(1990) by Kurtz et al were used to determine in vivo activity of the thrombin inhibitors of the invention. Male Sprague-Dawley rats (b)ody weights 200-350 grams) were anesthetized with dial-urethane solution (0.1 ml/100 gm body weight i.p.), and a lateral tail vein was cannulated with a 23 gauge needle connected to a 12 inch length of PE50 tubing. The tubing was attached to a 3-way valve by a tubing adapter. Saline (control) or test compound, as appropriate, was administered via the tail vein catheter. A tracheostomy was performed with a 0.75 inch length of PE205 tubing. The right carotid artery is exposed and a 1.3 mm diameter Doppler flow probe was placed on the vessel. Body temperature was maintained at 37° C. using a heat lamp.
6 rats were randomized to continuous intravenous infusions of saline or test compound administered via the tail vein. Test compound was administered at a rate of 10 μg/kg/min. Treatment infusions were initiated 60 min before the placement of a 3 mm square piece of Whatman No. 1 filter paper saturated with 35% FeCl3 onto the exposed carotid artery distal to the flow probe. […] Time to occlusion was defined as the time from application of FeCl3 to thrombotic occlusion of the vessel.

Compound | Ki (human α-thrombin) | efficacy in rat ferric chloride assay (thrombotic occlusion) | rats showing evidence of thrombotic occlusion (thrombotic occlusion)
CCNC(=O)COc1ccccc1CNC(=O)Cn1c(C)cnc(NCCc2ccccc2)c1=O [H, NHC2 H5] | < 1 nM | – | –
Cc1nc(N)ccc1CNC(=O)Cn1c(C)cnc(NCCc2ccccc2)c1=O [test compound] | – | fully efficacious | None of the rats treated with the test compound showed evidence of thrombotic occlusion
Cc1nc(N)ccc1CNC(=O)Cn1c(C)cnc(NC(C)(C)Cc2ccccc2)c1=O [PhCH2 C(CH3)2] | ≥ 1 nM | – | –
CCNC(=O)COc1ccc(Cl)cc1CNC(=O)Cn1c(C)cnc(NC(C)(C)C)c1=O [t-C4 H9] | ≥ 1 nM | – | –
